How the values were obtained:
[1] = Br. J. Clin. Pharmac., 1993, 36, 125-127; cited from earlier work
[2] = Specific study in healthy subjects: renal handling of creatinine; assay type: in vivo
[3] = Clinical trials with dronedarone: serum creatinine levels; assay type: in vivo
Method: The instant invention therefore relates to a method of managing the risk of an increased morbidity and mortality rate in patients treated by an association of dronedarone or one of its pharmaceutically acceptable salts and of at least a compound B selected from ACE inhibitors, angiotensin II receptor antagonists and potassium sparing diuretics. Said method is performed by performing the following steps: • a) initially measuring serum creatinine levels, such as within one week after initiation of treatment with dronedarone, which provides a reference level, • b) monitoring serum creatinine levels at regular intervals during treatment of the patient by the compound B (as recommended in the labelling of compound B), • c) if the serum creatinine levels increases above the reference level, clinical judgement should be made to determine if the increase is due to dronedarone, to compound B or to another cause, • d) to help clinical judgment and evaluate if the increase is due to dronedarone, dronedarone can be temporarily interrupted.
Concerning step a) of the methods of the invention, as mentioned before, in most patients with atrial fibrillation or atrial flutter the maximal increase in creatinine levels, compared to the level before administration of dronedarone, was smaller than 30%, with a mean increase ranging from 10 to 15% or more. Then during the treatment with dronedarone, mean creatinine levels remain stable, this corresponds to a plateau.

[4] = ANDROMEDA (EFC4966) clinical trial in patients with a recent severe episode of Congestive Heart failure; assay type: in vivo; settings: 400 mg BID
Method: Despite the equal distribution of treatment with ACE inhibitors/AII receptor antagonists at baseline, concomitant treatment with these drugs became unbalanced during the course of the ANDROMEDA study, as more patients in the dronedarone 400 mg BID group discontinued these treatments and fewer started them (table 2).
In the dronedarone 400 mg BID group, 14 of 41 patients who discontinued ACE/AII experienced “blood creatinine increased” or “renal impairment” adverse events, versus none among the 18 patients taking placebo in this category. This observation supports the hypothesis that an increase in serum creatinine observed in patients taking dronedarone may have led investigators to discontinue ACE/AII treatment (table 4).

Compound: CCCCc1oc2ccccc2c1C(=O)c1cc(I)c(OCCN(CC)CC)c(I)c1 [amiodarone]
- tubular secretion of creatinine [1]: decrease in the tubular secretion of creatinine

Compound: CN/C(=N/CCSCc1nc[nH]c1C)NC#N [cimetidine]
- tubular secretion of creatinine [1]: decrease in the tubular secretion of creatinine

Compound: COc1cc(Cc2cnc(N)nc2N)cc(OC)c1OC [trimethoprim]
- tubular secretion of creatinine [1]: decrease in the tubular secretion of creatinine

Compound: CCCCc1oc2ccc(NS(C)(=O)=O)cc2c1C(=O)c1ccc(OCCCN(CCCC)CCCC)cc1 [dronedarone, 2-n-butyl-3-[4-(3-di-n-butylaminopropoxy)benzoyl]-5-methylsulfonamido-benzofuran]
- effect on creatinine secretion at the tubular level [2]: inhibition of creatinine secretion at the tubular level
- effect on glomerular filtration [2]: no effect
- effect on renal blood flow [2]: no effect
- change in serum creatinine levels of the patient ([3]; administration of dronedarone in clinical trials): slight increase
- return of creatinine levels to baseline after treatment discontinuation ([3]; after treatment discontinuation): within three days
- time of occurrence of creatinine increase after treatment initiation ([3]; after treatment initiation): within two days
- return of creatinine to baseline after temporary interruption of dronedarone ([3]; demonstrated in another clinical trial): ≤ 5 days
- creatinine levels during treatment ([3]; during treatment): remained stable
- maximal increase in creatinine levels compared to the level before administration ([3]; most patients with atrial fibrillation or atrial flutter): smaller than 30%
- patients who died among those who never interrupted ACE inhibitors/AII receptor antagonists [4]: 4%
- patients who discontinued ACE/AII and experienced blood creatinine increased or renal impairment adverse events ([4]; of 41 patients who discontinued ACE/AII): 14 patients

— patent US20100016423A1, “USE OF DRONEDARONE FOR THE TREATMENT OF PATIENTS WITH ARRHYTHMIA AND HAVING AN INCREASE OF CREATININE LEVEL DUE TO DRONEDARONE ADMINISTRATION” (SANOFI-AVENTIS, priority 2008, published 2010)
